In patent US9802960B2 (MILLENNIUM PHARMACEUTICALS, INC., priority 2014, dated 2017):

What follows are compounds tested against Human VPS34 (Homo sapiens (Human), UniProt Q8NEB9) (assay: Human VPS34 enzyme assay (Adapta TR-FRET)). Conditions: compound concentration 1.11 μM.
Human VPS34, sequence (Q8NEB9 whole entry): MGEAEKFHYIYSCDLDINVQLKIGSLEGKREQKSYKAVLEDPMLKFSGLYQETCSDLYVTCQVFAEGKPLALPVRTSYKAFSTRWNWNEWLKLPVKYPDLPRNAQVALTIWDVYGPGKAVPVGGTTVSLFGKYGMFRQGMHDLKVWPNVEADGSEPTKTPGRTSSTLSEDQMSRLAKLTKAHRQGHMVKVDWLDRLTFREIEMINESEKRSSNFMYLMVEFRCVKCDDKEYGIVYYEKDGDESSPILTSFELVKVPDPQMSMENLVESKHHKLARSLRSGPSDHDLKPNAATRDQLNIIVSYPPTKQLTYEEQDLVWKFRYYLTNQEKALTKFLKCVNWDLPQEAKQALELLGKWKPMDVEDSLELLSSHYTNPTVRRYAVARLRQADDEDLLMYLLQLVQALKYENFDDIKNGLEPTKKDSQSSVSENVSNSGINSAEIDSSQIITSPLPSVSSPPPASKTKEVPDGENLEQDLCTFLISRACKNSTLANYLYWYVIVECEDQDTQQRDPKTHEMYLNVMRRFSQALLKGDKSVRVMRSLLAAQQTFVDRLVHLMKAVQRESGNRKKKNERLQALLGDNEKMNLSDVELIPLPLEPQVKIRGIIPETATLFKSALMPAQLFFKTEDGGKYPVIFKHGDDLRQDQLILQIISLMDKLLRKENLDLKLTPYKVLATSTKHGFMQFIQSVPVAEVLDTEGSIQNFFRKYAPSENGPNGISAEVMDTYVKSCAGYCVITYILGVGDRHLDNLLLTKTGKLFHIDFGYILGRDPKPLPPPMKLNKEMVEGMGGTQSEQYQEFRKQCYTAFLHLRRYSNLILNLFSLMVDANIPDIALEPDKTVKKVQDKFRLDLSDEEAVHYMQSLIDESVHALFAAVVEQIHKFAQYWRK
Assay type: biochemical
`Cc1c(-c2ccnc(N)c2)cnc(Cl)c1NS(=O)(=O)c1ccc(F)cc1F` [Compound I-287, N-(2′-amino-6-chloro-4-methyl-3,4′-bipyridin-5-yl)-2,4-difluorobenzenesulfonamide] was tested, and the “Percent Inhibition” value was 91%. In the case of `CC(=O)Nc1cc(-c2cnc(C)c(NS(=O)(=O)N3CC4CCC3C4)c2)ccn1` (stereo not shown) [Compound I-445, N-{5-[(2-azabicyclo[2.2.1]hept-2-ylsulfonyl)amino]-6-methyl-3,4′-bipyridin-2′-yl}acetamide], the “Percent Inhibition” value is reported as >99%.

Same assay, conditions: compound concentration 1.11 μM; read-out: Percent Inhibition
For `CC(=O)Nc1cc(-c2cncc(NC(=O)c3ccc(F)cc3F)c2)ccn1` [Compound I-419, N-(2′-acetamido-3,4′-bipyridin-5-yl)-2,4-difluorobenzamide], the inhibition at 1.11 µM was 56%. In the case of `CNc1ncc(-c2ccnc(NC(C)=O)c2)cc1N1CCCS1(=O)=O` [Compound I-132, N-[5-(1,1-dioxidoisothiazolidin-2-yl)-6-(methylamino)-3,4′-bipyridin-2′-yl]acetamide], the inhibition at 1.11 µM is reported as > 99%. In the case of `Cc1nccc(Nc2cc(-c3cnc(Cl)c(NS(=O)(=O)N(C)C)c3C)ccn2)n1` [Compound I-381, N′-{6-chloro-4-methyl-2′-[(2-methylpyrimidin-4-yl)amino]-3,4′-bipyridin-5-yl}-N,N-dimethylsulfuric diamide], the inhibition at 1.11 µM is reported as > 99%. In the case of `CC(=O)Nc1cc(-c2cncc(C(C)=O)c2)ccn1` [Compound I-194, N-(5-acetyl-3,4′-bipyridin-2′-yl)acetamide], the inhibition at 1.11 µM is reported as 62%. In the case of `CC(=O)Nc1cc(-c2cnc3ccn(CC4CC4)c3c2)ccn1` [Compound I-93], the inhibition at 1.11 µM is reported as 86%. In the case of `CC(=O)Nc1cc(-c2cnc(C)c(NS(=O)(=O)c3cccc(C)c3F)c2)ccn1` [Compound I-339, N-(5-{[(2-fluoro-3-methylphenyl)sulfonyl]amino}-6-methyl-3,4′-bipyridin-2′-yl)acetamide], the inhibition at 1.11 µM is reported as 98%. `CC(=O)Nc1cc(-c2cncc(S(=O)(=O)NC3CCC3)c2)ccn1` [Compound I-396, N-[5-(cyclobutylsulfamoyl)-3,4′-bipyridin-2′-yl]acetamide] showed an inhibition at 1.11 µM of 94%. For `CC(=O)Nc1cc(-c2cncc(N3CCCN(C)S3(=O)=O)c2)ccn1` [Compound I-452, N-[5-(6-methyl-1,1-dioxido-1,2,6-thiadiazinan-2-yl)-3,4′-bipyridin-2′-yl]acetamide], the inhibition at 1.11 µM was > 99%. With `Cc1nccc(Nc2cc(-c3cnc(C)c(C(=O)O)c3)ccn2)n1` [Compound I-253, 6-methyl-2′-((2-methylpyrimidin-4-yl)amino)-[3,4′-bipyridine]-5-carboxylic acid] the inhibition at 1.11 µM was 96%. For `COc1ncc(-c2ccnc(NC(C)=O)c2)cc1C(=O)N(C)c1ccc(F)cc1F` [Compound I-423, 2′-acetamido-N-(2,4-difluorophenyl)-6-methoxy-N-methyl-3,4′-bipyridine-5-carboxamide], the inhibition at 1.11 µM was > 99%. `Cc1ncc(-c2ccnc(Nc3ccnc(C(F)(F)F)n3)c2)cc1NS(=O)(=O)c1ccc(F)cc1F` [Compound I-237, 2,4-difluoro-N-(6-methyl-2′-{[2-(trifluoromethyl)pyrimidin-4-yl]amino}-3,4′-bipyridin-5-yl)benzenesulfonamide] showed an inhibition at 1.11 µM of 91%. `COc1ncc(-c2ccnc(NC(C)=O)c2)c(C)c1NS(=O)(=O)N(C)C` [Compound I-268, N-{5-[(dimethylsulfamoyl)amino]-6-methoxy-4-methyl-3,4′-bipyridin-2′-yl}acetamide] was tested, and the inhibition at 1.11 µM was 100%. `CC(=O)Nc1cc(-c2cnc3[nH]cc(S(=O)(=O)N(C)C)c3c2)ccn1` [Compound I-40, N-{4-[3-(dimethylsulfamoyl)-1H-pyrrolo[2,3-b]pyridin-5-yl]pyridin-2-yl}acetamide] was tested, and the inhibition at 1.11 µM was > 99%. `CC(=O)Nc1cc(-c2cnc(N)c(C(=O)N3Cc4ccccc4C3)c2)ccn1` [Compound I-125, N-[6-amino-5-(1,3-dihydro-2H-isoindoI-2-ylcarbonyl)-3,4′-bipyridin-2′-yl]acetamide] was tested, and the inhibition at 1.11 µM was > 99%. Work on `CC(=O)Nc1cc(-c2cnc(Cl)c(NS(=O)(=O)c3ccc(C#N)cc3)c2C)ccn1` [Compound I-429, N-(6-chloro-5-{[(4-cyanophenyl)sulfonyl]amino}-4-methyl-3,4′-bipyridin-2′-yl)acetamide] yielded an inhibition at 1.11 µM of 96%. Compound `CC(=O)Nc1cc(-c2cnc3ncn(CC4CC4)c3c2)ccn1` [Compound I-135, N-{4-[1-(cyclopropylmethyl)-1H-imidazo[4,5-b]pyridin-6-yl]pyridin-2-yl}acetamide] has an inhibition at 1.11 µM of 99%. `CC(=O)Nc1cc(-c2cnc3cnn(S(=O)(=O)C4CC4)c3c2)ccn1` [Compound I-2, N-{4-[1-(cyclopropylsulfonyl)-1H-pyrazolo[4,3-b]pyridin-6-yl]pyridin-2-yl}acetamide] was tested, and the inhibition at 1.11 µM was > 99%. For `CC(=O)Nc1cc(-c2cnc(N)c(C(=O)NC3CCOCC3)c2)ccn1` [Compound I-210, 2′-acetamido-6-amino-N-(tetrahydro-2H-pyran-4-yl)-3,4′-bipyridine-5-carboxamide], the inhibition at 1.11 µM was > 99%. `CC(=O)Nc1cc(-c2cnc(N)c(C(=O)N3CCC(C)CC3)c2)ccn1` [Compound I-81, N-{6-amino-5-[(4-methylpiperidin-1-yl)carbonyl]-3,4′-bipyridin-2′-yl}acetamide] was tested, and the inhibition at 1.11 µM was > 99%. For `COC(=O)Nc1cc(-c2cnc(N)c(S(=O)(=O)N3CCCC3)c2)ccn1` [Compound I-36, methyl[6-amino-5-(pyrrolidin-1-ylsulfonyl)-3,4′-bipyridin-2′-yl]carbamate], the inhibition at 1.11 µM was > 99%. `Cc1ncc(-c2ccnc(NC(=O)C3CCC3)c2)cc1NS(=O)(=O)c1ccc(F)cc1F` [Compound I-305, N-(5-{[(2,4-difluorophenyl)sulfonyl]amino}-6-methyl-3,4′-bipyridin-2′-yl)cyclobutanecarboxamide] gave an inhibition at 1.11 µM of 94%. With `Cc1nc(Nc2cc(-c3cnc(C)c(NS(=O)(=O)c4ccc(F)cc4F)c3)ccn2)ccc1C#N` [Compound I-289, N-{2′-[(5-cyano-6-methylpyridin-2-yl)amino]-6-methyl-3,4′-bipyridin-5-yl}-2,4-difluorobenzene sulfonamide] the inhibition at 1.11 µM was > 99%. With `CC(=O)Nc1cc(-c2cnc(N)c(S(=O)(=O)Cc3ccccc3C(F)(F)F)c2)ccn1` [Compound I-50, N-(6-amino-5-{[2-(trifluoromethyl)benzyl]sulfonyl}-3,4′-bipyridin-2′-yl)acetamide] the inhibition at 1.11 µM was > 99%. Compound `CNc1ncc(-c2ccnc(NC(C)=O)c2)cc1C(=O)N(C)C12CC(C1)C2` [Compound I-449, 2′-acetamido-N-(bicyclo[1.1.1]pent-1-yl)-N-methyl-6-(methylamino)-3,4′-bipyridine-5-carboxamide] has an inhibition at 1.11 µM of 94%. For `CC(=O)Nc1cc(-c2cnc3cc[nH]c3c2)ccn1` [Compound I-17, N-[4-(1H-pyrrolo[3,2-b]pyridin-6-yl)pyridin-2-yl]acetamide], the inhibition at 1.11 µM was > 99%. In the case of `CCCCN(CCCC)S(=O)(=O)Nc1cc(-c2ccnc(NC(C)=O)c2)cnc1C` [Compound I-350, N-{5-[(dibutylsulfamoyl)amino]-6-methyl-3,4′-bipyridin-2′-yl}acetamide], the inhibition at 1.11 µM is reported as > 99%. With `CC(=O)Nc1cc(-c2cnc(N)c(C(=O)Nc3cc(C)cnn3)c2)ccn1` [Compound I-121, 2′-acetamido-6-amino-N-(5-methylpyridazin-3-yl)-3,4′-bipyridine-5-carboxamide] the inhibition at 1.11 µM was > 99%. Compound `CC(=O)Nc1cc(-c2cnc(C)c(NS(=O)(=O)CC(F)F)c2)ccn1` [Compound I-412, N-(5-{[(2,2-difluoroethyl)sulfonyl]amino}-6-methyl-3,4′-bipyridin-2′-yl)acetamide] has an inhibition at 1.11 µM of 97%. For `CC(=O)Nc1cc(-c2cc(NS(=O)(=O)c3ccc(F)cc3F)c3ccnn3c2)ccn1` [Compound I-404, N-[4-(4-{[(2,4-difluorophenyl)sulfonyl]amino}pyrazolo[1,5-a]pyridin-6-yl)pyridin-2-yl]acetamide], the inhibition at 1.11 µM was 94%. `CC(=O)Nc1cc(-c2cnc(N)c(S(=O)(=O)CCc3ccccc3)c2)ccn1` [Compound I-126, N-{6-amino-5-[(2-phenylethyl)sulfonyl]-3,4′-bipyridin-2′-yl}acetamide] was tested, and the inhibition at 1.11 µM was > 99%. With `CC(=O)Nc1cc(-c2cnc(C)c(NS(=O)(=O)c3ccc(F)cc3F)c2)cc[n+]1[O-]` [Compound I-219, N-[4-(5-{[(2,4-difluorophenyl)sulfonyl]amino}-6-methylpyridin-3-yl)-1-oxidopyridin-2-yl]acetamide] the inhibition at 1.11 µM was 92%. In the case of `Cc1ncc(-c2ccnc(Nc3nc4ccccc4s3)c2)cc1NS(=O)(=O)c1ccc(F)cc1F` [Compound I-271, N-[2′-(1,3-benzothiazol-2-ylamino)-6-methyl-3,4′-bipyridin-5-yl]-2,4-difluorobenzenesulfonamide], the inhibition at 1.11 µM is reported as 91%. Work on `CC(=O)Nc1cc(-c2cc(NS(=O)(=O)N(C)C)c3ccnn3c2)ccn1` [Compound I-476, N-(4-{4-[(dimethylsulfamoyl)amino]pyrazolo[1,5-a]pyridin-6-yl}pyridin-2-yl)acetamide] yielded an inhibition at 1.11 µM of 87%. With `CNc1ncc(-c2ccnc(NC(C)=O)c2)cc1N(CC1CC1)S(C)(=O)=O` [Compound I-141, N-{5-[(cyclopropylmethyl)(methylsulfonyl)amino]-6-(methylamino)-3,4′-bipyridin-2′-yl}acetamide] the inhibition at 1.11 µM was > 99%. In the case of `COc1ncc(-c2ccnc(NC(C)=O)c2)cc1NC(=O)c1ccc(F)cc1F` [Compound I-347, N-(2′-acetamido-6-methoxy-3,4′-bipyridin-5-yl)-2,4-difluorobenzamide], the inhibition at 1.11 µM is reported as 22%. With `CC(=O)Nc1cc(-c2cncc(N(C)S(C)(=O)=O)c2)ccn1` [Compound I-20, N-{5-[methyl(methylsulfonyl)amino]-3,4′-bipyridin-2′-yl}acetamide] the inhibition at 1.11 µM was > 99%. In the case of `CC(=O)Nc1cc(-c2cnc(N)c(S(=O)(=O)Nc3ccc4ccccc4c3)c2)ccn1` [Compound I-98, N-[6-amino-5-(2-naphthylsulfamoyl)-3,4′-bipyridin-2′-yl]acetamide], the inhibition at 1.11 µM is reported as > 99%. With `CC(=O)Nc1cc(-c2cncc(NS(=O)(=O)N(C)C)c2)ccn1` [Compound I-348, N-{5-[(dimethylsulfamoyl)amino]-3,4′-bipyridin-2′-yl}acetamide] the inhibition at 1.11 µM was > 99%.
